# Assay results taken from patent US20080076751A1, “Azetidinone Derivatives and Methods of Use Thereof” (priority 2006, published 2008).
# Molecular target: T1, TRPV1 (VR1) (Rattus norvegicus, UniProt O35433)
# T1 construct: expressed in transfected cells; host or cells: HEK293-TetOFF, expression induced by withdrawing doxycycline
# Test: TRPV1 screening assay (FLIPR, Fluo-4 calcium), capsaicin stimulation
# Format: cell-based
# Conditions: FLIPR, HEK293-TetOFF-TRPV1, capsaicin 50 nM final; read-out: VR1 flipr CAPSAICIN IC50
# From the text: (§1) • 1) Cell line: HEK293-Tet^OFF-TRPV1 • 2) Media: MEM (Invitrogen) • 3) 10% Tet-FBS (Clontech #8630-1) • 4) Fungizone (Gibe #15290-018 (100X)) • 5) Penn/Strep (Gibco #15140-122 (100X)) • 6) Geneticin (Gibco #10131-027 (100X)) • 7) Hygromycin (Clontech #8057-1) • 8) Doxycycline (Clontech #8634-1) • 9) Trypsin/EDTA (Gibco #25200-056) • 10) 100 mm cell culture plates (Falcon #3003) • 11) 96-well poly-D-lysine plates (Fisher #08-774-256) • 12) Hank's Balanced Salt Solution (HBSS) (GIBCO #14025-092) • 13) HEPES Buffer (GIBCO #15630-080) • 14) 30% BSA (Research Organics #1334A) • 15) Probenecid (Sigma P-8761) • 16) Fluo-4, AM (50 μg) (Molecular Probes F-23917) • 17) Pluronic F-127 20% (Molecular Probes P-3000). • 18) capsazepine (Sigma C-191) • 19) capsaicin (Sigma M-2028) • 20) compound plates (NUNC #442587) • 21) black pipet tips 96-well FLIPR (Robbins Scientific 1043-24-0) • 22) Additional reagents available from Fisher: methanol, DMSO, NaOH Reagent Preparation: 1) Cells: HEK293-Tet^OFF-TRPV11
# (§2) • and Doxycycline 2.5 μg/mL final (from a 1000× stock in PBS) • Cells must be fed and/or split every 2-3 days (to maintain transcriptional repression with Doxycycline). • Must be split no more than 1:5 (50-75% confluency) to maintain growth and viability. • Grown on regular tissue culture plates (e.g Falcon 3003-100 mm) • Split cells via Trypsin/EDTA: incubate with trypsin at room temperature no longer than 5 minutes (HEK293 cells have a tendency to ball up if over trypsinized). • Two days prior to assay, the cells are split into 96-well plates in cell media in the absence of doxycycline at a concentration of 40,000 cells/well in a volume of 200 μL. 2) FLIPR buffer is prepared fresh:
# Add 5 mL of Probenecid Solution, prepared as follows: 710 mg of probenecid (Sigma P-8761) is solubilized in 5 mL of 1N NaOH, 5 mL of above buffer is added for final volume of 10 mL. (of which 5 mL goes back into FLIPR buffer)
# Combine 42 μL of dye mixture with 11 mL of FLIPR buffer/96-well plate.
# Stock solution of 0.1 M capsaicin is prepared in MeOH (50 mg+1.6 mL MeOH). Store 50 μL aliquots at −80° C.
# (§3) For assay: • a) Dilute stock by adding 0.8 μL into 1 mL of MeOH (final=80 uM). • b) Add 50 μL of diluted stock to 20 mL of FLIPR buffer (final=0.2 uM) • c) Agonist solution is added 150 μL/well to 96-well plate. • d) Final agonist concentration on cells will be 50 nM. […] Laser is adjusted upwards for an average signal≧10,000/well and less than 10% variability. 7) Compound addition conditions are as follows: • FLIPR setup (dual sequence parameters): • Sequence 1: • First interval 1 sec/60 counts • Second interval 6 sec/50 counts • Fluid addition=50 μL • Pipettor height 110 μL • Dispense Speed=30 μL/sec • Sequence 2: • Second interval 1 sec/60 counts • Second interval 6 sec/40 counts • Fluid addition=50 μL • Pipettor height=140 μL • Dispense Speed=50 μL/sec Data Analysis: • 1) Data from both additions is reported as Max-Min for each well
# T1 sequence (O35433 whole entry): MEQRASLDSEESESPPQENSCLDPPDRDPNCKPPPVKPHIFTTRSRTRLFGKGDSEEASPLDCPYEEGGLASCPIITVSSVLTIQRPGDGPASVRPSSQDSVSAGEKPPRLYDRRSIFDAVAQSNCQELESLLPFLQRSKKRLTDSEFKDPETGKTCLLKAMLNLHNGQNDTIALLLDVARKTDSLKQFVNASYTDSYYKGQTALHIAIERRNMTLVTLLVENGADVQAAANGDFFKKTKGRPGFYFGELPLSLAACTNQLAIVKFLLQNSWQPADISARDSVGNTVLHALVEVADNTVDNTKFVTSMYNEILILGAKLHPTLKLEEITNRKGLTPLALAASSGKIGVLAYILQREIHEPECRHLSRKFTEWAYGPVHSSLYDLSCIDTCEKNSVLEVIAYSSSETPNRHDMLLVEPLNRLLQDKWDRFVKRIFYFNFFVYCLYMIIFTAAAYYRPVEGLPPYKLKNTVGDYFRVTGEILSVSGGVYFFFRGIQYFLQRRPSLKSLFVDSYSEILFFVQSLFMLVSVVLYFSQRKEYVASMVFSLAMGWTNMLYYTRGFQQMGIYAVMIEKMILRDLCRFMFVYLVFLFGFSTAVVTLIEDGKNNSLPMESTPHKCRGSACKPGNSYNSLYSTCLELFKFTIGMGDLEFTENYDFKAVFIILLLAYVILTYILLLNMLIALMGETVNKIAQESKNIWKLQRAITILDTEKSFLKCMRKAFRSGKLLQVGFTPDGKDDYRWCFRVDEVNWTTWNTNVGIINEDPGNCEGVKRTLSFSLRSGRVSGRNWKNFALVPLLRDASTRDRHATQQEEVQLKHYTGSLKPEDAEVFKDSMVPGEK
row,Compound,IC50 [µM]
1,"CC(C)(C)C1CCC(NC(=O)N2CCC3(CC2)C(=O)N(c2ccccc2)C3c2ccccc2)CC1 (single isomer, unassigned)",0.048
2,CC(C)(C)c1ccc(NC(=O)N2CCC3(CC2)CN(c2ccccc2)C3=O)cc1,0.08
3,CCC(C)c1ccc(NC(=O)N2CCC3(CC2)C(=O)N(c2ccccc2)C3c2ccccc2)cc1 (stereo not shown),0.098
4,CC(C)c1ccc(NC(=O)N2CCC3(CC2)CN(c2ccccc2)C3=O)cc1,0.504
5,"O=C(Nc1ccc(C(F)(F)F)cc1)N1CCC2(CC1)C(=O)N(c1ccccn1)C2c1ccccc1 (single isomer, unassigned)",0.007

# The next lines start with the values.
row,IC50 [µM],Compound
1,0.02,O=C(Nc1ccc(C(F)(F)F)cc1)N1CCC2(CC1)C(=O)N(c1ccccn1)C2c1ccccc1 (stereo not shown)
2,0.084,"CC(C)(C)C1CCC(NC(=O)N2CCC3(CC2)CN(c2ccccc2)C3=O)CC1 (single isomer, unassigned)"
3,0.009,"CC(C)(C)c1ccc(NC(=O)N2CCC3(CC2)C(=O)N(c2ccccc2)C3c2ccccc2)cc1 (single isomer, unassigned)"
4,0.315,O=C(Nc1ccc(C(F)(F)F)cn1)N1CCC2(CC1)C(=O)N(c1ccccc1)C2c1ccccc1 (stereo not shown)

# Molecular target: T1, TRPV1 (VR1)
# Test: TRPV1 screening assay (FLIPR, Fluo-4 calcium), PMA stimulation
# Format: cell-based
# Conditions: HEK293-TetOFF-TRPV1, PMA
# Method: 2) FLIPR buffer is prepared fresh:
# as §3
row,Compound,IC50 [µM]
1,"CC(C)(C)C1CCC(NC(=O)N2CCC3(CC2)C(=O)N(c2ccccc2)C3c2ccccc2)CC1 (single isomer, unassigned)",0.031
2,CC(C)(C)c1ccc(NC(=O)N2CCC3(CC2)CN(c2ccccc2)C3=O)cc1,0.059
3,CCC(C)c1ccc(NC(=O)N2CCC3(CC2)C(=O)N(c2ccccc2)C3c2ccccc2)cc1 (stereo not shown),0.081
4,CC(C)c1ccc(NC(=O)N2CCC3(CC2)CN(c2ccccc2)C3=O)cc1,0.005
5,"O=C(Nc1ccc(C(F)(F)F)cc1)N1CCC2(CC1)C(=O)N(c1ccccn1)C2c1ccccc1 (single isomer, unassigned)",0.007

# The next lines start with the values.
row,IC50 [µM],Compound
1,0.016,O=C(Nc1ccc(C(F)(F)F)cc1)N1CCC2(CC1)C(=O)N(c1ccccn1)C2c1ccccc1 (stereo not shown)
2,0.123,"CC(C)(C)C1CCC(NC(=O)N2CCC3(CC2)CN(c2ccccc2)C3=O)CC1 (single isomer, unassigned)"
3,0.012,"CC(C)(C)c1ccc(NC(=O)N2CCC3(CC2)C(=O)N(c2ccccc2)C3c2ccccc2)cc1 (single isomer, unassigned)"
4,0.205,O=C(Nc1ccc(C(F)(F)F)cn1)N1CCC2(CC1)C(=O)N(c1ccccc1)C2c1ccccc1 (stereo not shown)

# Molecular target: T2, rat VR1 (Rattus norvegicus, UniProt O35433)
# T2 construct: expressed in transfected cells; host or cells: HEK293-TetOFF
# Test: TRPV1 screening assay (FLIPR), rat VR1 % activation at single concentration
# Format: cell-based
# Conditions: not given
# From the text: as §1, §2
# For assay: • a) Dilute stock by adding 0.8 μL into 1 mL of MeOH (final=80 uM). • b) Add 50 μL of diluted stock to 20 mL of FLIPR buffer (final=0.2 uM) • c) Agonist solution is added 150 μL/well to 96-well plate. • d) Final agonist concentration on cells will be 50 nM. (˜EC80) 6) Compound Plate preparation: • a) Compound plate is filled with 150 μL/well of FLIPR buffer • b) 3 μL of compound mixtures (1 mg/mL) is added to each well (represents a 3× solution and final DMSO=0.67%) Assay Procedure: • 1) Media is removed from cells grown in 96-well dishes. • 2) 100 μL of Fluo-4 containing FLIPR buffer in pipetted into each well. • 3) Plates are incubated for 30-60 minutes at 37° C. in 5% CO2 incubator. • 4) Plates are then washed three times with 100 μL of FLIPR buffer. • 5) 100 μL of FLIPR buffer is left in each well and plate is incubated at 37° C. for at least 20 minutes. • 6) Signal of dye-labeled plate is initially determined using laser at 0.300 W with an exposure time of 0.4 seconds. Laser is adjusted upwards for an average signal≧10,000/well and less than 10% variability. 7) Compound addition conditions are as follows: • FLIPR setup (dual sequence parameters): • Sequence 1: • First interval 1 sec/60 counts • Second interval 6 sec/50 counts • Fluid addition=50 μL • Pipettor height 110 μL • Dispense Speed=30 μL/sec • Sequence 2: • Second interval 1 sec/60 counts • Second interval 6 sec/40 counts • Fluid addition=50 μL • Pipettor height=140 μL • Dispense Speed=50 μL/sec Data Analysis: • 1) Data from both additions is reported as Max-Min for each well
# T2 sequence (O35433 whole entry): as above
row,Compound,rat VR1 % activation @ 3.3 ug/ml compound [%]
1,O=C(Nc1cccc(C(F)(F)F)c1)N1CCC2(CC1)C(=O)N(c1cncc(Cl)c1)C2c1ccccn1 (stereo not shown) [drawing 661],61
2,O=C(Nc1cccc(C(F)(F)F)c1)N1CCC2(CC1)C(=O)N(c1ccc(F)c(Cl)c1)C2c1ccccn1 (stereo not shown) [drawing 660],98
3,N#Cc1cc(F)cc(NC(=O)N2CCC3(CC2)C(=O)N(c2ccc(F)c(Cl)c2)C3c2ccccn2)c1 (stereo not shown) [drawing 662],67

# Molecular target: T3, human-SP9215 (GPR119) (Homo sapiens, UniProt Q8TDV5)
# T3 construct: expressed in transfected cells
# T3 sequence (Q8TDV5 1-335): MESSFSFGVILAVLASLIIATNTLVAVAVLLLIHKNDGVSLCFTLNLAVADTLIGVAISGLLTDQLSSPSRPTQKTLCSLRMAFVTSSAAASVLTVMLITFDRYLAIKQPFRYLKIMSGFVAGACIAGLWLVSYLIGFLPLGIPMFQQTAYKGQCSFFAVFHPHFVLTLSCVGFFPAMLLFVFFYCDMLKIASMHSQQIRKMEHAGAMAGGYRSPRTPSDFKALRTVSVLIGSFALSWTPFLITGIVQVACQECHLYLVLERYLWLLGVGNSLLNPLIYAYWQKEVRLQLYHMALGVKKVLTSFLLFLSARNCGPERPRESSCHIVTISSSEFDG
# Test: GPR119 screening assay (LANCE cAMP, HEK 293 Human clone 3)
# Format: cell-based
# Conditions: HEK 293 Human clone 3, LANCE cAMP; read-out: GPR119 cAMP IC5O
# Method: • +100 mg BSA (MP Biomedicals faction V, #103703)=0.1% • +500 μL 1M HEPES (Cellgro #25-060-Cl)=5 mM • +75 μL RO-20 (Sigma B8279; 20 mM stock in DMSO stored in aliquots at −20° C.)=15 μM • (made fresh daily) B84 (N-[4-(methylsulfonyl)phenyl]-5-nitro-6-[4-(phenylthio)-1-piperidinyl]-4-pyrimidinamine, see WO 2004/065380): A 10 mM stock solution of the test compound in DMSO was prepared, aliquoted and stored at −20° C. For Totals—Dilute 1:33.3 in DMSO then 1:50 in Stimulation Buffer=6 μM in 2% DMSO (=3 μM B84 and 1% DMSO final). For Dose Response Curve -3 μL stock+7 μL DMSO+490 μL Stim Buffer=60 μM in 2% DMSO (=30 μM B84 and 1% DMSO final). (made fresh daily). Cell Line Human clone 3: HEK 293 cells stable transfected with human-SP9215 (GPR119)/pcDNA3.1 and also stable for pCRELuc, Stratagene. Cells are maintained in DMEM containing 10% FBS (Invitrogen #02-4006Dk, lot #1272302, heat inactivated), 1×MEM, 1× Pen/Strep, 0.1 mg/mL Hygromycin B, and 0.5 mg/mL G418. Cells are split 1:8 twice per week. cAMP Kit: LANCE™ cAMP 384 kit, Perkin Elmer #AD0263 Compound Dilutions • 1. Add DMSO to vials containing compounds to provide a 1 mg/mL solution. • 2. Dilute compounds to 60 μM in Stimulation buffer. Make ½ log dilutions into stimulation buffer containing 2% DMSO using the epMotion robot. 10 point dose response curve 1 nM to 30 μM. • 3. Compounds are run in quadruplicate, 2 separate dilutions for each, sets 1 and 1a. Assay Procedure • 1. The afternoon before the assay, replace the media in the flask of Human clone 3 cells with Optimem. (Gibco # 11058-021) NOTE: cells should be in culture 6-8 days. • 2. Next morning, pipet the cells gently off the flask using HBSS (at room temperature). • 3. Pellet the cells (1300 rpm, 7 minutes, room temperature) and resuspend in Stimulation Buffer at 2.5×10e6/mL (=5-8,000 cell/6 μL). Add 1:100 dilution of Alexa Fluor 647-anti cAMP antibody (provided in the kit) directly to the cell suspension. • 4. Into white 384-well plates (Matrix) add 6 μL of 2×B84, cmpds or stim buffer for nsb. They all contain 2% DMSO (=1% DMSO final). • Add 6 μL of the cell suspension to the wells. Incubate 30 minutes at room temperature. • For the std curve add 6 μL cAMP std solution diluted in Stim Buffer+2% DMSO according to kit directions (1000-3 nM). Add 6 μL of 1:100 anti-cAMP dilution in Stim Buffer to std wells. • Make Detection Mix according to kit instructions and incubate 15 minutes at room temperature. • Add 12 μL Detection Mix to all the wells.
row,Compound,IC50 [µM]
1,COc1cc(C(=O)N2CCC3(CC2)C(=O)N(c2cccc(C(F)(F)F)c2)C3c2ccc(Cl)cc2)cc(OC)c1OC (stereo not shown),4.4
2,CC(C)OC(=O)N1CCC2(CC1)C(=O)N(C(c1ccccc1)c1ccccc1)C2c1ccccc1 (stereo not shown),2
3,COC(=O)c1ccc(N2C(=O)C3(CCN(C(=O)c4ccc5c(c4)OCCCO5)CC3)C2c2ccc(Cl)cc2)cc1 (stereo not shown),1
4,COc1cc(C(=O)N2CCC3(CC2)C(=O)N(c2ccc(F)cc2)C3c2ccc(Cl)cc2)cc(OC)c1OC (stereo not shown),4.36
5,COC(=O)c1ccc(N2C(=O)C3(CCN(C(=O)c4cc(OC)c(OC)c(OC)c4)CC3)C2c2ccc(Cl)cc2)cc1 (stereo not shown),2.72
6,N#Cc1ccc(N2C(=O)C3(CCN(C(=O)c4ccc5c(c4)OCCCO5)CC3)C2c2ccc(Cl)cc2)cc1 (stereo not shown),2.28
7,O=C(c1ccc2c(c1)OCCCO2)N1CCC2(CC1)C(=O)N(c1ccc(C(F)(F)F)cc1)C2c1ccc(Cl)cc1 (stereo not shown),4.46

# The next lines start with the values.
row,IC50 [µM],Compound
1,3.8,COc1cccc(N2C(=O)C3(CCN(C(=O)c4cc(OC)c(OC)c(OC)c4)CC3)C2c2ccc(Cl)cc2)c1 (stereo not shown)
2,4.68,C[C@H](NC(=O)N1CCC2(CC1)C(=O)N(c1ccc(F)cc1)C2c1ccc(F)cc1)c1ccccc1 (stereo partly shown)
3,4.18,O=C(c1ccc2c(c1)OCCCO2)N1CCC2(CC1)C(=O)N(c1ccc([N+](=O)O)cc1)C2c1ccc(Cl)cc1 (stereo not shown)
